Read-outs that look alike come from different tables or passages of the source.
Assays:
Type in all cases: cell-based, human
[1] = tested on: HUES6; assay: IC50 analyses of three inhibitors of cell growth, HUES6
Procedure: (§1) For feeder-free experiments, cells were cultured in a chemically defined medium (Essential 8 medium).
(§2) hESCs were cultured with Essential 8 medium (Thermo Fisher, A1517001) which containing 15% Alamar blue at 37° C. for 5 hours. The activities were calculated by measuring absorbance at 570 nm and 600 nm. To count the cell numbers with trypan blue assay, cells were treated with trypsin and the suspended cells were mixed 0.2% trypan blue (1:1) and counted with a hemocytometer.
(§3) To check the functional roles of cholesterol on pluripotency, cholesterol inhibitor simvastatin, AY9944, Methyl-β-cyclodextrin (MBCD) were used to inhibit cholesterol biosynthesis (FIG. 4A). […] HMGCR is the rate-limiting enzyme of cholesterol biosynthesis. The side effects of statin are few and no cytotoxic side effects in human has been reported. AY9944 inhibits Δ7-dehydrocholesterol reductase (DHCR7), and decrease levels of cholesterol (Wassila Gaoua, 2000). Methyl-β-cyclodextrin (MBCD) directly deprived cellular cholesterol (Mahammad and Parmryd, 2015) (FIG. 4A). […] Next, we would like to know whether PSCs are more rely on cholesterol pathway. Thus, we compared the sensitivities of three cholesterol inhibitors in PSCs and three somatic fibroblast cells. […]

[2] = tested on: H9; assay: IC50 analyses of three inhibitors of cell growth, H9
Procedure: as §1, §2, §3

[3] = tested on: hBMSC; assay: IC50 analyses of three inhibitors of cell growth, hBMSC; settings: for IC50: hBMSC, inhibitor treatments for 3 days; for hPSCs more sensitive than human bone marrow mesenchymal stem cells (hBMMSCs): hBMMSCs vs hPSCs
Procedure: (§4) Human BMMSCs (Lonza) were cultured in MSC NutriStem XF Medium (Defined, xeno-free, serum-free medium) and grown on Corning CellBIND Surface plates with inhibitor treatments for 3 days. Human neural stem cells (NSCs) were differentiated from H9 hESCs with Gibco PSC Neural Induction Medium (serum-free medium) for 7 days. And the NSCs were replated on matrigel-coated plate and supplied with each inhibitors for 3 days.
(§5) To check the functional roles of cholesterol on pluripotency, cholesterol inhibitor simvastatin, AY9944, Methyl-β-cyclodextrin (MBCD) were used to inhibit cholesterol biosynthesis (FIG. 4A). […] HMGCR is the rate-limiting enzyme of cholesterol biosynthesis. The side effects of statin are few and no cytotoxic side effects in human has been reported. AY9944 inhibits Δ7-dehydrocholesterol reductase (DHCR7), and decrease levels of cholesterol (Wassila Gaoua, 2000). Methyl-β-cyclodextrin (MBCD) directly deprived cellular cholesterol (Mahammad and Parmryd, 2015) (FIG. 4A). […] Next, we would like to know whether PSCs are more rely on cholesterol pathway. Thus, we compared the sensitivities of three cholesterol inhibitors in PSCs and three somatic fibroblast cells. Primary human foreskin fibroblasts (CRL-2097), a human foreskin fibroblast cell line (BJ-5Ta), and a fetal lung fibroblast cell line (IMR-90) were used for comparison.

[4] = tested on: hNSC; assay: IC50 analyses of three inhibitors of cell growth, hNSC; settings: for IC50: hNSC, inhibitors for 3 days; for hPSCs more sensitive than human neural stem cells (hNSCs): hNSCs vs hPSCs
Procedure: as §4, §5

[5] = tested on: BJ-5Ta; assay: IC50 analyses of three inhibitors of cell growth, BJ-5Ta
Description: as §5

[6] = tested on: CRL-2097; assay: IC50 analyses of three inhibitors of cell growth, CRL-2097; settings: for IC50 higher in primary fibroblasts than HUES6: primary fibroblasts vs HUES6
Description: as §5

[7] = tested on: IMR-90; assay: IC50 analyses of three inhibitors of cell growth, IMR-90
Description: as §5

[8] = tested on: PODXL downregulated HUES6 hESCs; assay: Cholesterol rescue in PODXL knockdown hESCs (Alamar blue, ALP activity); settings: cholesterol addition for 4 days
Procedure: (§6) FIGS. 5A-5B. Cholesterol addition rescue hESC renewal in PODXL knockdown cells. […] Quantification of Annexin V/PI-positive cells was executed in triplicates (bottom left panel). P-values were calculated by performing one-way ANOVA against the shRFP hESCs (*p<0.05, **p<0.01, ***p<0.001). (Bottom right panel) Cholesterol restores the c-MYC/TERT expressions decrease by the expression of shPODXL. Western Blots were executed in PODXL knockdown HUES6 hESCs with the addition of cholesterol for 4 days.
as §2
Alkaline phosphatase (ALP) activities were calculated by adding the substrate of ALP, p-nitrophenyl phosphate (pNPP) (N7653, sigma), in the culture medium. The plate were incubated at 37° C. less than 5 minutes, then the absorbance was measured at 405 nm. For Alkaline phosphatase (ALP) staining, hPSCs were first washed with PBS and used 4% formaldehyde as a fixative. After fixing for 3 minutes, the cells were washed with 1×PBS and were stained by ALP staining reagent (Sigma). Then the cells were further washed by PBS. […]

[9] = tested on: PODXL knockdown hESCs; assay: Annexin V/PI apoptosis in PODXL knockdown hESCs with cholesterol; settings: PODXL knockdown for six days
Procedure: as §6
hESCs were dissociated by accutase. The cells were stained according to manufactures' instructions (eBioscience, 88-8005-72). In brief, cells (5×10^5) were suspended at in 100 μl 1× binding buffer, and then stained with 2.5 μl of Annexin V-FITC. After reaction for 20 min at room temperature, the cells were incubated with 2.5 μl of PI solution for 10 min. Then the cells were diluted with PBS and analyzed with a flow cytometer.
To examine if cholesterol is the major downstream of PODXL, rescue experiment with cholesterol was performed.

[10] = tested on: c-MYC, TERT, HMGCR, PODXL, TRA-1-60; assay: Western blot in PODXL knockdown hESCs with cholesterol; settings: PODXL downregulated cells, cholesterol for 4 days
Procedure: as §6
Whole-cell protein extracts were purified from hPSCs or using RIPA lysis buffer (1% NP40, 50 mM Tris, pH 8.0, 150 mM NaCl, 2 mM EDTA) with the presence of protease inhibitor cocktail (Roche, 04693132001). Protein concentration was quantified by Bio-Rad Bradford Protein Assay. Equal amounts of protein were subjected to a 10% SDS-PAGE gel and blotted onto 0.22 um PVDF membrane (Millipore, ISEQ00010). Blots were blocked in 5% BSA/TBST at room temperature for 1 hr. The blots were incubated with the primary antibodies in 5% BSA/TBST at 4° C. overnight. […]

[11] = tested on: CRL2097; assay: iPSC reprogramming efficiency with cholesterol (alkaline phosphatase assay); settings: with OSKM 4 factors
Procedure: FIG. 6. The addition of cholesterol promote the iPSCs reprogramming efficiency. CRL2097 (passage 9) were seeded and infected with lentivirual vector (OSKM) with final concentration of cholesterol (0, 0.5×, 1×, 2×, 5×, 8×) which was diluted from 500× concentrated SyntheChol® NSO Supplement (S5442, Sigma). Alkaline phosphatase assay was performed to assay the reprogramming efficiency.
CRL2097 (passage 9) were seeded and infected with lentivirual vector (OSKM) with final concentration of cholesterol (0, 0.5×, 1×, 2×, 5×, 8×) which was diluted from 500× concentrated SyntheChol® NSO Supplement (S5442, Sigma). After 4 days viral transduction, cell were replated on matrigel-coated 6-well plates as cell number 27, 000 per well. 2 days later for cell attachment, cholesterol were supplied continually during reprogramming procedure. To better evaluate cholesterol effect to iPSC generation, serum-free defined E8 medium (containing 250 μM sodium butyrate, 50 μg/ml Vitamin C) was used for iPSC generation.
In addition, cholesterol can boost the reprogramming efficiency (total AP positive, 7.62-fold) with OSKM 4 factors.

[12] = tested on: HUES6 hESCs; assay: Alkaline phosphatase activity after cholesterol inhibitor treatment; settings: treatment for 3 days
Description: as §5

[13] = tested on: PODXL overexpressing hESCs; assay: Inhibitor treatment of PODXL overexpressing hESCs (Alamar blue, ALP activity); settings: PODXL overexpressed one day, then inhibitor treatment for 3 days
Procedure: as §2

For `CCC(C)(C)C(=O)O[C@H]1C[C@@H](C)C=C2C=C[C@H](C)[C@H](CC[C@@H]3C[C@@H](O)CC(=O)O3)[C@H]21` [Simvastatin, (1S,3R,7S,8S,8aR)-1,2,3,7,8,8a-Hexahydro-3,7-dimethyl-8-[2-[(2R,4R)-tetrahydro-4-hydroxy-6-oxo-2H-pyran-2-yl]ethyl]-1-naphthalenyly-2,2-dimethyl butanoate], the IC50 ([1]; Homo sapiens) was 0.16 µM, the IC50 ([2]; Homo sapiens) was 0.02 µM and the IC50 ([3]; Homo sapiens, 72 h) was 8.97 µM. For the same compound, the “hPSCs more sensitive than human bone marrow mesenchymal stem cells (hBMMSCs)” value [3] was 163 fold, the IC50 ([4]; Homo sapiens, 72 h) was 31.2 µM and the “hPSCs more sensitive than human neural stem cells (hNSCs)” value [4] was 568 fold. For the same compound, the IC50 ([5]; Homo sapiens, no serum) was 1.96 µM, the IC50 ([5]; Homo sapiens, serum) was 4.36 µM and the IC50 ([6]; Homo sapiens, CRL-2097, no serum) was 4.35 µM. For the same compound, the IC50 ([6]; Homo sapiens, CRL-2097, serum) was 5.44 µM, the “IC50 higher in primary fibroblasts than HUES6” value [6] was 52 fold and the IC50 ([7]; Homo sapiens, IMR-90, IMR-90, no serum) was 5.46 µM. The IC50 ([7]; Homo sapiens, IMR-90, IMR-90, serum) was 4.13 µM.
`CC(C)CCC[C@@H](C)[C@H]1CC[C@H]2[C@@H]3CC=C4C[C@@H](O)CC[C@]4(C)[C@H]3CC[C@]12C` [cholesterol] was tested, and the “relative cell number loss from PODXL knockdown” value ([8]; Alamar blue) was “prevent”, the “reduction in ALP activity from PODXL knockdown” value [8] was “prevent” and the “apoptosis of the hPSCs” value [9] was “substantially restored”. The “expression levels of c-MYC, TERT, HMGCR, PODXL, TRA-1-60” value [10] was “rescued” and the “reprogramming efficiency (total AP positive)” value [11] was 7.62 fold.
Methyl-β-cyclodextrin [MBCD] was tested, and the IC50 [1] was 1350 µM, the IC50 [2] was 1130 µM and the “hPSCs more sensitive than human bone marrow mesenchymal stem cells (hBMMSCs)” value [3] was 2.65 fold. The IC50 [3] was 3290 µM, the IC50 [4] was 3020 µM and the “hPSCs more sensitive than human neural stem cells (hNSCs)” value [4] was 2.44 fold. For the same compound, the IC50 ([5]; no serum) was 2340 µM, the IC50 ([5]; serum) was 3770 µM and the IC50 ([6]; CRL-2097, no serum) was 2600 µM. The IC50 ([6]; CRL-2097, serum) was 3860 µM, the “IC50 higher in primary fibroblasts than HUES6” value [6] was 2 fold and the IC50 ([7]; IMR-90, no serum) was 2640 µM. For the same compound, the IC50 ([7]; IMR-90, serum) was 2810 µM, the “Alkaline phosphatase activities (stem cell marker expression)” value [12] was “hampered” and the “upregulation in self-renewal (cell growth and ALP activity) by PODXL overexpression” value [13] was “inhibited”.

— patent publication US20220090023A1, “METHODS FOR REGULATING POTENCY OF PLURIPOTENT STEM CELLS AND APPLICATIONS THEREOF” (ACADEMIA SINICA, priority 2018, published 2022)
